# Values quoted from earlier work as cited in US12637369B2, “Method for selectively removing perfluorinated compounds with electrooxidation” (SK hynix Inc., priority 2021, dated 2026).
# Columns and labels:
# [1] = not given; remark: listed apart in the source
smiles,measurement,setting,value
"O=S(=O)(O)C(F)(F)C(F)(F)C(F)(F)C(F)(F)F [PFBS, Perfluorobutane sulfonic acid]",Solubility in water,,Very high
same,pKa,[1],−3.94
"O=C(O)C(F)(F)C(F)(F)C(F)(F)C(F)(F)C(F)(F)C(F)(F)C(F)(F)C(F)(F)F [PFNA, Perfluorononanoic acid]",Solubility in water,,9500 µg/mL
same,pKa,[1],2-3
"O=C(O)C(F)(F)C(F)(F)C(F)(F)C(F)(F)C(F)(F)C(F)(F)C(F)(F)F [PFOA, Perfluorooctanoic acid]",Solubility in water,,3400 µg/mL
"O=S(=O)(O)C(F)(F)C(F)(F)C(F)(F)C(F)(F)C(F)(F)C(F)(F)C(F)(F)C(F)(F)F [PFOS, Perfluorooctane sulfonic acid]",Solubility in water,,570 µg/mL
same,pKa,[1],−3.27
